Like-named read-outs stand apart in the source and are kept apart here.
Key:
[1] = IAM chromatography on new IAM.PC.DD2 columns (gradient HPLC, CHI (IAM)); format: physicochemical; design: key to CHI (IAM) “new” / P20511-014-3 CHI (IAM): CHI (IAM) from retention times calibrated to predefined CHI standards; conditions: for P20511-014-3 CHI (IAM): new IAM.PC.DD2 column batch P20511-014-3, pH 7.4; for R20511-014-3 CHI (IAM): new IAM.PC.DD2 column batch R20511-014-3, pH 7.4; for CHI (IAM) deviation between reference and new IAM.PC.DD2 columns / CHI (IAM) “new”: system suitability test compounds; for CHI (IAM) “new”: new IAM.PC.DD2 columns, pH 7.4; for outlier in correlation of reference CHI (IAM) with CHI (IAM) on column R20511-014-3: lower CHI (IAM) on new batches, outlier if difference greater than 7.2 CHI IAM units
Experimental: The IAM binding was measured using IAM.PC.DD2 HPLC columns (Regis Technologies, Inc., IL, USA) with dimensions of 100 x 4.6 mm, particle size 10 μm with 300 Å pore size.
Two batches of IAM.PC.DD2 columns were studied (R20511-014-3 and P20511-014-3) that had been prepared using the new batches of silica support.
The retention times were standardized using the IAM calibration mixture, containing octanophenone, heptanophenone, hexanophenone, valerophenone, butyrophenone, propiophenone, acetophenone, acetanilide and paracetamol. The retention times of the compounds were plotted against the isocratically determined and predefined CHI (IAM) values listed in Table 1. The slope and intercept of the obtained straight line was used to calculate the CHI IAM values of new compounds.

[2] = cited from earlier work; for CHI (IAM) from ref [13]: reference CHI (IAM), old columns
[3] = target: T1, human serum albumin (HSA) (Homo sapiens, UniProt P02768); assay: Protein binding on chemically bonded HSA column (Chiralpak-HSA); conditions: remeasured in this study, pH 7.4
Experimental: Mobile phase A was 50 mM ammonium acetate adjusted to pH 7.4 and mobile phase B was 2-propanol. The flow rate was 1.5 mL/min and the run time was 6 min. The 2-propanol gradient was applied from 0 to 35% from 0 to 3.00 min and kept at 35% until 4.00 min.

[4] = target: T1, human serum albumin (HSA); conditions: cited from earlier work
[5] = human

T1 sequence (P02768 25-609): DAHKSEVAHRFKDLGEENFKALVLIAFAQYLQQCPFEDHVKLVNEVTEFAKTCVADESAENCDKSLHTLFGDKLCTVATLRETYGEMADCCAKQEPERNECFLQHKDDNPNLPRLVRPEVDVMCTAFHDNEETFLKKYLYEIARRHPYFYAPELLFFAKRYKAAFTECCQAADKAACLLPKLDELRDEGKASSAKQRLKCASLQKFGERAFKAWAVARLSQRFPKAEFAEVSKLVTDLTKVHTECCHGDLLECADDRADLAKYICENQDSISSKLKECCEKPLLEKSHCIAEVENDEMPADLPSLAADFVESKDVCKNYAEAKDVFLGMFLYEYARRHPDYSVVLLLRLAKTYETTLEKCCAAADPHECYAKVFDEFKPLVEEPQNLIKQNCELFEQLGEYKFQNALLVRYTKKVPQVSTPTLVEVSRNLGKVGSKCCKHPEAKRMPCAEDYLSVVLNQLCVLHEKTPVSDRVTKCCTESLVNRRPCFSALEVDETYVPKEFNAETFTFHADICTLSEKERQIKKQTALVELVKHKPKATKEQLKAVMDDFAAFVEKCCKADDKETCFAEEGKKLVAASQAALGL

Structure (SMILES)	P20511-014-3 CHI (IAM) [1]	R20511-014-3 CHI (IAM) [1]	log K HSA [3]	CHI (IAM) deviation between reference and new IAM.PC.DD2 columns [1]	outlier in correlation of reference CHI (IAM) with CHI (IAM) on column R20511-014-3 [1]	CHI (IAM) from ref [13] [2]	log K HSA from ref [13] [4]	CHI (IAM) “new” [1]	CHI (IAM) ([2]; previously published, IAM column manufactured 2004-2012)	reference log Vdss [5]	CHI (IAM) ([2]; system suitability test compounds, CHI (IAM) reference from the literature)
CC(=O)CC(c1ccccc1)c1c(O)c2ccccc2oc1=O (centres unmarked) [Warfarin]	24.18	23.47	–	very similar	–	–	–	24.0	–	-0.78	–
COc1ccc2cc(CCC(C)=O)ccc2c1 [Nabumetone]	35.96	35.90	2.14	–	–	38.40	0.49	–	–	–	–
CCOC(=O)c1ncn2c1CN(C)C(=O)c1cc(F)ccc1-2 [Flumazenil]	18.27	18.27	–	–	–	18.40	–	–	–	–	–
O=C(CCCN1CCC(O)(c2ccc(Cl)cc2)CC1)c1ccc(F)cc1 [Haloperidol]	–	–	–	very similar	–	–	–	48	–	–	–
Clc1ccc2c(c1)C(N1CCNCC1)=Nc1ccccc1O2 [Amoxapine]	44.74	45.41	2.70	–	–	56.50	2.15	–	–	–	–
C[C@H]1C[C@H]2[C@@H]3CCC4=CC(=O)C=C[C@]4(C)[C@@]3(F)[C@@H](O)C[C@]2(C)[C@@]1(O)C(=O)CO [Betamethasone]	30.05	30.18	–	–	–	31.70	–	–	–	–	–
COc1ccc(Cc2nccc3cc(OC)c(OC)cc23)cc1OC [Papaverine]	31.15	31.22	0.39	–	–	34.40	–	–	–	–	–
CCOC(=O)C1=C(C)NC(C)=C(C(=O)OC)C1c1cccc(Cl)c1Cl (centres unmarked) [Felodipine]	44.45	44.37	–	–	–	46.10	–	–	–	–	–
COc1cc2c(c(OC)c1OC)-c1ccc(OC)c(=O)cc1[C@@H](NC(C)=O)CC2 [Colchicine]	23.18	23.45	–	–	–	23.70	–	23.0	–	–	–
CCCCNCC(O)c1ccc(O)cc1 (centres unmarked) [Bamethan]	18.03	18.53	0.42	–	–	–	–	–	–	–	–
Cn1c(=O)c2c(ncn2CC(O)CO)n(C)c1=O (centres unmarked) [Diprophylline]	-1.98	-1.49	4.24	–	–	-4.00	4.1	–	–	–	–
CCN(CC)CCNC(=O)c1ccc(NC(C)=O)cc1 [Acecainide]	17.57	17.72	0.52	–	–	23.30	0.69	–	–	–	–
NC(=O)OCC(COC(N)=O)c1ccccc1 [Felbamate]	39.21	39.16	4.15	–	–	19.07	3.46	–	–	–	–
C[C@]12CCC(=O)C=C1CC[C@@H]1[C@@H]2[C@@H](O)C[C@@]2(C)[C@H]1CC[C@]2(O)C(=O)CO [Hydrocortisone]	27.02	27.23	2.59	–	–	27.90	–	–	–	–	–
CC(C)NCC(O)COc1cccc2ccccc12 (centres unmarked) [Propranolol]	41.46	42.24	1.02	–	–	50.80	–	42.0	–	–	–
CCCC1O[C@@H]2C[C@H]3[C@@H]4CCC5=CC(=O)C=C[C@]5(C)[C@H]4[C@@H](O)C[C@]3(C)[C@]2(C(=O)CO)O1 (some centres unmarked) [Budesonide]	–	–	–	very similar	–	–	–	38	–	–	38.7
CN(C)CCCN1c2ccccc2CCc2ccccc21 [Imipramine]	44.81	45.58	5.59	> 5 CHI (IAM) unit	–	51.60	–	45.0	–	–	–

More lines, main results first:

P20511-014-3 CHI (IAM) [1]	R20511-014-3 CHI (IAM) [1]	log K HSA [3]	CHI (IAM) deviation between reference and new IAM.PC.DD2 columns [1]	outlier in correlation of reference CHI (IAM) with CHI (IAM) on column R20511-014-3 [1]	Structure (SMILES)	CHI (IAM) from ref [13] [2]	log K HSA from ref [13] [4]	CHI (IAM) “new” [1]	CHI (IAM) ([2]; previously published, IAM column manufactured 2004-2012)	reference log Vdss [5]	CHI (IAM) ([2]; system suitability test compounds, CHI (IAM) reference from the literature)
29.35	29.82	–	–	–	COc1cc2nc(N3CCN(C(=O)c4ccco4)CC3)nc(N)c2cc1OC [Prazosin]	31.60	–	–	–	–	–
–	–	4.82	–	–	CC/C(=C(\c1ccccc1)c1ccc(OCCN(C)C)cc1)c1ccccc1 [Tamoxifen]	–	1.29	–	–	–	–
23.89	22.93	–	very similar	–	CC(C(=O)O)c1cccc(C(=O)c2ccccc2)c1 (centres unmarked) [Ketoprofen]	21.90	–	20.0	21.9	–	–
33.86	34.09	3.06	–	–	O=c1n(CCCN2CCN(c3cccc(Cl)c3)CC2)nc2ccccn12 [Trazodone]	36.30	0.8	–	–	–	–
11.89	11.73	1.67	–	outliers	CCN(CC)CCNC(=O)c1ccc(N)cc1 [Procainamide]	–	0.73	–	–	–	–
26.89	26.19	2.66	–	–	O=C1C(CC[S+]([O-])c2ccccc2)C(=O)N(c2ccccc2)N1c1ccccc1 (centres unmarked) [Sulfinpyrazone]	26.10	3.17	–	–	–	–
–	–	–	–	outliers	CN(C)CCc1c[nH]c2ccc(C[C@H]3COC(=O)N3)cc12 [zolmitriptan]	–	–	–	–	–	–
37.48	38.29	–	–	–	CC(CCc1ccccc1)NCC(O)c1ccc(O)c(C(N)=O)c1 (centres unmarked) [Labetalol]	43.90	–	–	–	–	–
7.37	6.48	3.68	–	–	Cc1noc(NS(=O)(=O)c2ccc(N)cc2)c1C [Sulfisoxazole]	2.90	–	–	–	–	–
27.20	27.31	–	–	–	C[C@]12C=CC(=O)C=C1CC[C@@H]1[C@@H]2[C@@H](O)C[C@@]2(C)[C@H]1CC[C@]2(O)C(=O)CO [Prednisolone]	28.00	–	–	–	–	–
20.52	20.99	0.95	–	–	COc1cc(Cc2cnc(N)nc2N)cc(OC)c1OC [Trimethoprim]	20.80	4.45	–	–	–	–
48.97	49.57	2.02	–	–	OCCN1CCN(CCCN2c3ccccc3Sc3ccc(Cl)cc32)CC1 [Perphenazine]	56.30	1.6	–	–	–	–
–	–	3.21	–	–	CCCc1cc(=O)[nH]c(=S)[nH]1 [Propylthiouracil]	–	2.67	–	–	–	–
39.26	39.50	–	–	–	CC(=O)N1CCN(c2ccc(OCC3COC(Cn4ccnc4)(c4ccc(Cl)cc4Cl)O3)cc2)CC1 (centres unmarked) [Ketoconazole]	42.90	–	–	–	–	–
